Here are results for ten compounds from PubChem BioAssay (NCI).

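Assay format: 96-well plates, 48-hour exposure. The concentration for 50% growth inhibition is given as GI50. Definition used: TGI = concentration required for complete inhibition of growth.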

Test systems include K-562 leukemia; HT29 colon; RPMI-8226 leukemia; HCT-15 colon; HL-60(TB) leukemia; OVCAR-3 ovarian; NCI-H23 lung; HOP-92 NSCLC; CAKI-1 renal.
Holding throughout (assay): NCI anticancer screen, dose series, 48 h

For the compound `COC(=O)C1=C(C(=O)OC)C23C=C(C)C1C2=C(C)C1(CC1)[C@@](C)(O)C3=O` (some centres not stated), the GI50 in the test with K-562 leukemia is 6.07 µM; in the test on HT29 colon, 0.337 µM; in the test with RPMI-8226 leukemia, 7.36 µM; in the test on HCT-15 colon, 0.403 µM; in the test on HL-60(TB) leukemia, 1.55 µM; in the test on OVCAR-3 ovarian, 0.336 µM. The values for the GI50 in the test on NCI-H23 lung and with HOP-92 NSCLC were 0.17 µM and 0.31 µM, respectively. For the same compound, the TGI with K-562 leukemia is greater than 100 µM; in the test on HT29 colon it was 16.9 µM; in the test on RPMI-8226 leukemia, 52.6 µM; in the test with HCT-15 colon it was 12.8 µM; in the test with HL-60(TB) leukemia, 15.9 µM; with OVCAR-3 ovarian, 2.12 µM. Also, the TGI is 0.851 µM in the test with NCI-H23 lung and 1.53 µM with HOP-92 NSCLC.
Regarding `Nc1ccc(/C=N/Nc2ccnc3c(N)cccc23)c2cccnc12`, the GI50 with HT29 colon is 1.92 µM; in the test on HCT-15 colon, 1.34 µM; in the test on OVCAR-3 ovarian it was 1.63 µM; in the test with HOP-92 NSCLC, 1.58 µM. The TGI is 3.47 µM in the test with HT29 colon, 2.9 µM in the test with HCT-15 colon, 3.16 µM in the test on OVCAR-3 ovarian and 3.14 µM with HOP-92 NSCLC.
Consider `COc1ccc(-c2nc(-c3nc4ccc(OC)cc4[nH]3)cc3c2[nH]c2ccccc23)cc1`, for which the GI50 in the test with K-562 leukemia was 1.52 µM; with HT29 colon it was 3.46 µM; in the test with RPMI-8226 leukemia, 0.363 µM; with HCT-15 colon it was 2.88 µM; in the test on HL-60(TB) leukemia, 4.08 µM; with CAKI-1 renal, 6.07 µM. The GI50 was 3.51 µM in the test with OVCAR-3 ovarian and 5.8 µM with NCI-H23 lung. Also, the TGI in the test with K-562 leukemia is greater than 100 µM; in the test with HT29 colon, greater than 100 µM; in the test on RPMI-8226 leukemia, 2.86 µM; with HCT-15 colon it was greater than 100 µM; in the test on HL-60(TB) leukemia it was greater than 100 µM; with CAKI-1 renal it was greater than 100 µM. For the same compound, the TGI in the test on OVCAR-3 ovarian and in the test on NCI-H23 lung was greater than 100 µM in each case.
Consider `CCOC(=O)/C(=C/c1ccc(C#N)cc1)N(CC)CC`, for which the TGI with K-562 leukemia, in the test on HT29 colon, with RPMI-8226 leukemia, in the test on HCT-15 colon, in the test with HL-60(TB) leukemia and in the test with CAKI-1 renal was greater than 100 µM each time. Besides, the TGI in the test on NCI-H23 lung and in the test on HOP-92 NSCLC was greater than 100 µM throughout.
In the case of `NCCNC(=S)S`, the TGI in the test on K-562 leukemia is 95.1 µM; with HT29 colon it was greater than 100 µM; in the test with RPMI-8226 leukemia it was 58.8 µM; in the test on HCT-15 colon, greater than 100 µM; with HL-60(TB) leukemia it was greater than 100 µM; in the test on CAKI-1 renal, greater than 100 µM. The TGI in the test on OVCAR-3 ovarian and in the test with NCI-H23 lung was greater than 100 µM in each case.
As for `Cc1[nH]c(=O)[nH]c(=O)c1CO`, the GI50 in the test on K-562 leukemia, in the test with HT29 colon, in the test with HCT-15 colon, with HL-60(TB) leukemia, with CAKI-1 renal and in the test with OVCAR-3 ovarian was greater than 100 µM each time. Moreover, the GI50 in the test with NCI-H23 lung and in the test with HOP-92 NSCLC was greater than 100 µM in each case. The TGI in the test with K-562 leukemia, in the test on HT29 colon, in the test on HCT-15 colon, in the test with HL-60(TB) leukemia, in the test with CAKI-1 renal and with OVCAR-3 ovarian was greater than 100 µM each time. Moreover, the TGI in the test with NCI-H23 lung and with HOP-92 NSCLC was greater than 100 µM in each case.
As to `COc1ccc2c(c1)CCC1C2CC[C@]2(C)/C(=N/OC(=O)Cc3ccccc3)CCC12` (some centres not stated), the GI50 in the test on HT29 colon is 22.6 µM; in the test on RPMI-8226 leukemia, 12.4 µM; in the test on HCT-15 colon, 18 µM; in the test with CAKI-1 renal it was 16 µM; in the test on OVCAR-3 ovarian, 15.8 µM; in the test with NCI-H23 lung, 16.2 µM. Also, the GI50 in the test on HOP-92 NSCLC was 25.2 µM. The TGI with HT29 colon is greater than 100 µM; in the test with RPMI-8226 leukemia it was 52.5 µM; with HCT-15 colon it was 36.3 µM; in the test with CAKI-1 renal it was 30.9 µM; with OVCAR-3 ovarian, 31 µM; in the test with NCI-H23 lung, 32.7 µM. In addition, the TGI in the test on HOP-92 NSCLC worked out at 81 µM.
Turning to `COc1cc(-c2cc(-c3nc4ccc(Cl)cc4[nH]3)[nH]n2)cc(OC)c1OC`, the GI50 in the test on K-562 leukemia is 3.04 µM; in the test with HT29 colon it was 4.14 µM; with RPMI-8226 leukemia it was 1.65 µM; with HCT-15 colon it was 2.9 µM; in the test with HL-60(TB) leukemia, 2.49 µM; in the test with CAKI-1 renal, 2.8 µM. Also, the GI50 in the test with OVCAR-3 ovarian is 3.5 µM; with NCI-H23 lung, 2.73 µM. The TGI in the test with K-562 leukemia is greater than 100 µM; in the test with HT29 colon it was 16.4 µM; with RPMI-8226 leukemia, 4.21 µM; in the test on HCT-15 colon, 13.2 µM; in the test with HL-60(TB) leukemia, 7.47 µM; with CAKI-1 renal, 11.1 µM. Also, the TGI in the test on OVCAR-3 ovarian was found to be 12.1 µM; in the test on NCI-H23 lung, 8.89 µM.
For the compound `C=C(C)[C@@H]1CC[C@]2(C)[C@H](CC[C@@H]3[C@H]4[C@H]5OC[C@@]4(CCC5(C)C)CC[C@]32C)[C@@]1(C)CCCN`, the GI50 in the test with K-562 leukemia is 2.25 µM; in the test on RPMI-8226 leukemia it was 2.05 µM; in the test on HCT-15 colon it was 1.59 µM; in the test on CAKI-1 renal, 1.62 µM; in the test on OVCAR-3 ovarian, 1.68 µM; with NCI-H23 lung, 1.77 µM. For the same compound, in the test with HOP-92 NSCLC, the GI50 was 1.37 µM. Also, the TGI stood at 9.01 µM in the test with K-562 leukemia; 5.09 µM in the test with RPMI-8226 leukemia; 2.99 µM in the test with HCT-15 colon; 3 µM in the test on CAKI-1 renal; 3.07 µM with OVCAR-3 ovarian; 3.53 µM in the test on NCI-H23 lung. In the test with HOP-92 NSCLC, this compound yielded a TGI of 2.79 µM.
On to `NS(=O)(=O)c1ccc(N2N=C3c4ccccc4CC3C2c2ccc(Cl)cc2)cc1` (configuration not stated), for which the GI50 with K-562 leukemia is 10.6 µM; in the test on HT29 colon, 15.7 µM; in the test with RPMI-8226 leukemia, 2.73 µM; with HCT-15 colon, 18.2 µM; in the test on CAKI-1 renal it was 18.2 µM; in the test with OVCAR-3 ovarian, 17.3 µM. In addition, the GI50 in the test on NCI-H23 lung is 11.4 µM; with HOP-92 NSCLC it was 10.3 µM. The TGI in the test with K-562 leukemia is greater than 100 µM; with HT29 colon, greater than 100 µM; in the test on RPMI-8226 leukemia it was 24 µM; in the test on HCT-15 colon, 38.3 µM; in the test on CAKI-1 renal it was 32.8 µM; in the test on OVCAR-3 ovarian, 34.7 µM. Moreover, the TGI was found to be 34.8 µM with NCI-H23 lung and 28.9 µM in the test on HOP-92 NSCLC.
